Inhibition and Activity data for three compounds are collected here from ChEMBL document CHEMBL4476871, “SULFAMIDE AND SULFAMATE INHIBITORS OF hHint1” (2018).

Active and inactive are the calls of the source. No cut-off for these calls is given here.

Experiment [1] has as its target Adenosine 5'-monophosphoramidase HINT1 (Homo sapiens) (UniProt P49773). The experiment is described as follows: Inhibition of human N-terminal His6-tagged Hint1 expressed in Escherichia coli Rosetta 2 pLysS cells by fluorescence assay.
Experiment [2] relates to Mus musculus. Briefly: Analgesic activity in ICR mouse model of spared nerve injury assessed as reduction in mechanical hypersensitivity at 1 nmol administered intrathecally prior to spared nerve injury by Von Frey test. The format is functional, organism-based.
In experiment [3] the test system is Mus musculus. Briefly: Analgesic activity in ICR mouse model of spared nerve injury assessed as reduction in mechanical hypersensitivity at 1 nmol administered intrathecally 7 days post spared nerve injury by Von Frey test. The format is functional, organism-based.
In experiment [4] the test system is Mus musculus. Briefly: Analgesic activity in ICR mouse model of spared nerve injury assessed as reduction in mechanical hypersensitivity at 1 nmol administered intrathecally 7 days post spared nerve injury measured after 4 hrs by Von Frey test. The format is functional, organism-based.

Chain of Adenosine 5'-monophosphoramidase HINT1 (Homo sapiens) (P49773 whole entry): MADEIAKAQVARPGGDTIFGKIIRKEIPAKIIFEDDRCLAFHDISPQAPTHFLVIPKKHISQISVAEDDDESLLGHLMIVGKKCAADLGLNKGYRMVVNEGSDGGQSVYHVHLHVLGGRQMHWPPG

With `Nc1nc2c(ncn2[C@@H]2O[C@H](COC(=O)NCCc3c[nH]c4ccccc34)[C@@H](O)[C@H]2O)c(=O)[nH]1`, in experiment [1], the inhibition entry was “Dose-dependent effect”. In addition, the outcome in experiment [2] and in experiment [3] was Active.
Regarding `Nc1ncnc2c1ncn2[C@@H]1O[C@H](CNS(=O)(=O)NC(=O)CCCC[C@@H]2SC[C@@H]3NC(=O)N[C@@H]32)[C@@H](O)[C@H]1O`, the inhibition result in experiment [1] is “Dose-dependent effect”.
Take `O=C(CCc1c[nH]c2ccccc12)NS(=O)(=O)OC[C@H]1O[C@@H](n2cnc3c2ncn2ccnc32)[C@@H](O)C1O` (stereo partly specified): the outcome in experiment [2] was inactive. In addition, in experiment [4], the result was Active.
